Values quoted from earlier work as cited in US20260271921A1, “DILUTION-INDUCED RELEASE COMPOSITIONS AND METHODS OF USE THEREOF” (priority 2025, published 2026).

logP: 3.65
SMILES: CCN(CC)c1ccc2nc3c4ccccc4c(=O)cc-3oc2c1 [Nile Red]
